In US20240398828A1, “HETERO-ATOM CONTAINING COMPOUNDS AND USES THEREOF” (Kumquat Biosciences Inc., priority 2021, published 2024) one finds IC50 data, which are given here for 24 compounds.

Assay [1] addresses T1, PTPN2 (i.e., TC-PTP) (Homo sapiens, UniProt P17706).
T1 sequence (P17706 1-415): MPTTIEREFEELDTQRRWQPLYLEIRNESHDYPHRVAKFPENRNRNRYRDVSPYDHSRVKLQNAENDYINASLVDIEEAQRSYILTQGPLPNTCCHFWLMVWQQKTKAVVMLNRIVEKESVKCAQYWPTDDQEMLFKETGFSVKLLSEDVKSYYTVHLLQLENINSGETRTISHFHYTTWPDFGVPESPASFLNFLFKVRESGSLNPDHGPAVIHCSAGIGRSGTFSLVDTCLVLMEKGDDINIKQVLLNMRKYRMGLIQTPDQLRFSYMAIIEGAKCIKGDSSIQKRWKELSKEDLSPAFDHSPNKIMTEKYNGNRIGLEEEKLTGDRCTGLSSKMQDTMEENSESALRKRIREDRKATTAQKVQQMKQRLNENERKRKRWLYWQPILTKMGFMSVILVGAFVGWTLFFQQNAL
Put plainly: Phosphatase activity assay (DiFMUP substrate), PTPN2. In kind it is biochemical. Particulars: compounds binned ≤1 uM or >1 uM. Summed up:
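Continuous fluorogenic readout of DiFMUP dephosphorylation at room temperature, substrate set at Km for each phosphatase (about 45 μM in the PTPN2 assay). The buffer contains 1 mM DTT and 0.001% Tween-20, pH 7.5.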

The target in assay [2] is T2, PTPN1 (i.e., PTP1B) (Homo sapiens, UniProt P18031).
T2 sequence (P18031 1-435): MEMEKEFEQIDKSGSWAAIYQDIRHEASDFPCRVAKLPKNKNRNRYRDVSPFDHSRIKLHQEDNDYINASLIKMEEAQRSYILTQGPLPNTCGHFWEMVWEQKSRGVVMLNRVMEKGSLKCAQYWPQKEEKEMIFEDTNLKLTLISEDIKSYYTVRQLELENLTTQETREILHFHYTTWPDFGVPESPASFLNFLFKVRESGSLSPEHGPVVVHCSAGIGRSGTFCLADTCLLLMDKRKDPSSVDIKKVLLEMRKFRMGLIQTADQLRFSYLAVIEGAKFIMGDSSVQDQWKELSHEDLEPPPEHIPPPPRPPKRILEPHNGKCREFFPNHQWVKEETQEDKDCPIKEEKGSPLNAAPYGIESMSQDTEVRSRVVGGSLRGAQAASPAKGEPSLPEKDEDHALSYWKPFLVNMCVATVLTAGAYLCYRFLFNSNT
Put plainly: Phosphatase activity assay (DiFMUP substrate), PTP1B. Format: biochemical. Particulars: compounds binned ≤1 uM or >1 uM. The method in brief: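 Enzyme (e.g. PTPN2 0.025 ng/ul) mixed about 2 min with compound at 10 serial concentrations in 50 mM HEPES pH 7.5, 150 mM NaCl, 0.5 mM EDTA, 1 mM DTT, 0.001% Tween-20 at room temperature. DiFMUP added at each enzyme's Km (about 45 μM for PTPN2). DiFMU fluorescence (ex 360/em 450 nm) followed 15-30 min; IC50 from 4-parameter fit of rates.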

One may read the IC50 as the concentration that gives 50% inhibition.

On to `CC(O)c1cc(-c2ccc(O)c(N3CC(=O)NS3(=O)=O)c2F)[nH]n1` (stereo not drawn) [Compound 462, 5-(2-fluoro-6-hydroxy-3-(3-(1-hydroxyethyl)-1H-pyrazol-5-yl)phenyl)-1,2,5-thiadiazolidin-3-one 1,1-dioxide], for which the IC50 in assay [1] and in assay [2] was not above 1000 nM throughout.

Turning to `O=C1CN(c2c(O)ccc(-c3cnn(C4CCCOCC4)c3)c2F)S(=O)(=O)N1` (stereo not drawn) [Compound 456, 5-(2-fluoro-6-hydroxy-3-(1-(oxepan-4-yl)-1H-pyrazol-4-yl)phenyl)-1,2,5-thiadiazolidin-3-one 1,1-dioxide], the IC50 in assay [1] and in assay [2] was not above 1000 nM in each case.

For `O=C1CN(c2c(O)ccc(-c3cc(C4CC4)n(C(F)F)n3)c2F)S(=O)(=O)N1` [Compound 518, 5-(3-(5-cyclopropyl-1-(difluoromethyl)-1H-pyrazol-3-yl)-2-fluoro-6-hydroxyphenyl)-1,2,5-thiadiazolidin-3-one 1,1-dioxide], the IC50 in assay [1] and in assay [2] was not above 1000 nM each time.

For `O=C1CN(c2c(O)ccc(-c3cnn(Cc4cccc(Cl)c4)c3)c2F)S(=O)(=O)N1` [Compound 223, 5-(3-(1-(3-chlorobenzyl)-1H-pyrazol-4-yl)-2-fluoro-6-hydroxyphenyl)-1,2,5-thiadiazolidin-3-one 1,1-dioxide], the IC50 in assay [1] and in assay [2] was not above 1000 nM each time.

Turning to `O=C1CN(c2c(O)ccc(C3=CC(COC(F)F)NC3)c2F)S(=O)(=O)N1` (stereo not drawn) [Compound 480, 5-(3-(5-((difluoromethoxy)methyl)-2,5-dihydro-1H-pyrrol-3-yl)-2-fluoro-6-hydroxyphenyl)-1,2,5-thiadiazolidin-3-one 1,1-dioxide], the IC50 in assay [1] and in assay [2] was not above 1000 nM throughout.

Take `CO[C@H]1CC[C@H](n2cc(-c3ccc(O)c(N4CC(=O)NS4(=O)=O)c3F)cn2)CC1` [Compound 426, 5-(2-fluoro-6-hydroxy-3-(1-((1r,4r)-4-methoxycyclohexyl)-1H-pyrazol-4-yl)phenyl)-1,2,5-thiadiazolidin-3-one 1,1-dioxide]: the IC50 in assay [1] and in assay [2] was not above 1000 nM each time.

With `CC(C)N1CC=C(c2ccc(O)c(N3CC(=O)NS3(=O)=O)c2F)C1` [Compound 461, 5-(2-fluoro-6-hydroxy-3-(1-isopropyl-2,5-dihydro-1H-pyrrol-3-yl)phenyl)-1,2,5-thiadiazolidin-3-one 1,1-dioxide], the IC50 in assay [1] and in assay [2] was not above 1000 nM in each case.

Regarding `O=C1CN(c2c(O)ccc(-c3cn(C4CCC(Br)CC4)cn3)c2F)S(=O)(=O)N1` (stereo not drawn) [Compound 423, 5-(3-(1-(4-bromocyclohexyl)-1H-imidazol-4-yl)-2-fluoro-6-hydroxyphenyl)-1,2,5-thiadiazolidin-3-one 1,1-dioxide], the IC50 in assay [1] and in assay [2] was not above 1000 nM throughout.

For `Cc1noc(C)c1Cn1ccc(-c2ccc(O)c(N3CC(=O)NS3(=O)=O)c2F)c1` [Compound 390, 5-(3-(1-((3,5-dimethylisoxazol-4-yl)methyl)-1H-pyrrol-3-yl)-2-fluoro-6-hydroxyphenyl)-1,2,5-thiadiazolidin-3-one 1,1-dioxide], the IC50 in assay [1] and in assay [2] was not above 1000 nM each time.

Take `N#CC1(n2cc(-c3ccc(O)c(N4CC(=O)NS4(=O)=O)c3F)cn2)CC1` [Compound 484, 1-(4-(3-(1,1-dioxido-4-oxo-1,2,5-thiadiazolidin-2-yl)-2-fluoro-4-hydroxyphenyl)-1H-pyrazol-1-yl)cyclopropane-1-carbonitrile]: the IC50 in assay [1] and in assay [2] was not above 1000 nM in each case.

In the case of `CC(C)CCNC1CCCN(c2cc(O)c(N3CC(=O)NS3(=O)=O)c(F)c2)C1` (stereo not drawn) [Compound 104, 5-(2-fluoro-6-hydroxy-4-(3-(isopentylamino)piperidin-1-yl)phenyl)-1,2,5-thiadiazolidin-3-one 1,1-dioxide], the IC50 in assay [1] and in assay [2] was not above 1000 nM each time.

As for `O=C1CN(c2c(O)ccc(-c3cn(-c4ccc(C(F)(F)F)cc4)cn3)c2F)S(=O)(=O)N1` [Compound 318, 5-(2-fluoro-6-hydroxy-3-(1-(4-(trifluoromethyl)phenyl)-1H-imidazol-4-yl)phenyl)-1,2,5-thiadiazolidin-3-one 1,1-dioxide], the IC50 in assay [1] and in assay [2] was not above 1000 nM each time.

For the compound `Cn1ncc2cc(-c3ccc(O)c(N4CC(=O)NS4(=O)=O)c3F)ccc21` [Compound 112, 5-(2-fluoro-6-hydroxy-3-(1-methyl-1H-indazol-5-yl)phenyl)-1,2,5-thiadiazolidin-3-one 1,1-dioxide], the IC50 in assay [1] and in assay [2] was not above 1000 nM throughout.

On to `CN(C)C1CCN(c2cc(-c3ccc(O)c(N4CC(=O)NS4(=O)=O)c3F)[nH]n2)C1` (stereo not drawn) [Compound 397, 5-(3-(3-(3-(dimethylamino)pyrrolidin-1-yl)-1H-pyrazol-5-yl)-2-fluoro-6-hydroxyphenyl)-1,2,5-thiadiazolidin-3-one 1,1-dioxide], for which the IC50 in assay [1] and in assay [2] was not above 1000 nM in each case.

For the compound `Cc1ccc(-c2ccc(O)c(N3CC(=O)NS3(=O)=O)c2F)o1` [Compound 126, 5-(2-fluoro-6-hydroxy-3-(5-methylfuran-2-yl)phenyl)-1,2,5-thiadiazolidin-3-one 1,1-dioxide], the IC50 in assay [1] and in assay [2] was not above 1000 nM each time.

As for `CCC1C=C(c2ccc(O)c(N3CC(=O)NS3(=O)=O)c2F)CNC1` (stereo not drawn) [Compound 497, 5-(3-(5-ethyl-1,2,5,6-tetrahydropyridin-3-yl)-2-fluoro-6-hydroxyphenyl)-1,2,5-thiadiazolidin-3-one 1,1-dioxide], the IC50 in assay [1] and in assay [2] was not above 1000 nM in each case.

With `O=C1CN(c2c(O)ccc(-c3cc(C4CCCC4)n[nH]3)c2F)S(=O)(=O)N1` [Compound 266, 5-(3-(3-cyclopentyl-1H-pyrazol-5-yl)-2-fluoro-6-hydroxyphenyl)-1,2,5-thiadiazolidin-3-one 1,1-dioxide], the IC50 in assay [1] and in assay [2] was not above 1000 nM in each case.

In the case of `Nc1nc2ccc(-c3ccc(O)c(N4CC(=O)NS4(=O)=O)c3F)cc2s1` [Compound 135, 5-(3-(2-aminobenzo[d]thiazol-6-yl)-2-fluoro-6-hydroxyphenyl)-1,2,5-thiadiazolidin-3-one 1,1-dioxide], the IC50 in assay [1] and in assay [2] was not above 1000 nM each time.

For the compound `Cc1csc(-c2ccc(O)c(N3CC(=O)NS3(=O)=O)c2F)c1` [Compound 103, 5-(2-fluoro-6-hydroxy-3-(4-methylthiophen-2-yl)phenyl)-1,2,5-thiadiazolidin-3-one 1,1-dioxide], the IC50 in assay [1] and in assay [2] was not above 1000 nM each time.

Consider `CCn1cc(-c2ccc(O)c(N3CC(=O)NS3(=O)=O)c2F)c(F)n1` [Compound 506, 5-(3-(1-ethyl-3-fluoro-1H-pyrazol-4-yl)-2-fluoro-6-hydroxyphenyl)-1,2,5-thiadiazolidin-3-one 1,1-dioxide], for which the IC50 in assay [1] and in assay [2] was not above 1000 nM in each case.

Consider `O=C1CN(c2c(O)ccc(-c3ccc(OCc4ccccc4)nc3)c2F)S(=O)(=O)N1` [Compound 143, 5-(3-(6-(benzyloxy)pyridin-3-yl)-2-fluoro-6-hydroxyphenyl)-1,2,5-thiadiazolidin-3-one 1,1-dioxide], for which the 50% inhibitory concentration (IC50) in assay [1] and in assay [2] was not above 1000 nM each time.

Take `O=C1CN(c2c(O)ccc(-c3cn(C4CCS(=O)(=O)CC4)cn3)c2F)S(=O)(=O)N1` [Compound 412, 5-(3-(1-(1,1-dioxidotetrahydro-2H-thiopyran-4-yl)-1H-imidazol-4-yl)-2-fluoro-6-hydroxyphenyl)-1,2,5-thiadiazolidin-3-one 1,1-dioxide]: the concentration for half-maximal inhibition (IC50) in assay [1] and in assay [2] was not above 1000 nM in each case.

For `CC(C)CCc1cc(-c2ccc(O)c(N3CC(=O)NS3(=O)=O)c2F)[nH]n1` [Compound 389, 5-(2-fluoro-6-hydroxy-3-(3-isopentyl-1H-pyrazol-5-yl)phenyl)-1,2,5-thiadiazolidin-3-one 1,1-dioxide], the IC50 in assay [1] and in assay [2] was not above 1000 nM throughout.

As for `O=C1CN(c2c(O)ccc(-c3cc(N4CCC5(COC5)C4)n[nH]3)c2F)S(=O)(=O)N1` [Compound 431, 5-(3-(3-(2-oxa-6-azaspiro[3.4]octan-6-yl)-1H-pyrazol-5-yl)-2-fluoro-6-hydroxyphenyl)-1,2,5-thiadiazolidin-3-one 1,1-dioxide], the IC50 in assay [1] and in assay [2] was not above 1000 nM each time.
